Data set [1] in a line: Radiometabolite and arterial blood analysis. It counts as in vivo, rats. The note with it: rat; 120 minutes post-injection. How it is done: In a separate set of experiments (radiometabolite studies), the femoral artery was cannulated for blood sampling and the radiotracer was administered i.v. via tail vein. Surgical cannulation of femoral vein and artery was performed as follows: polyethylene catheters (PE50) filled with heparinized saline (20 IU/mL) were inserted into the left femoral artery or vein with the help of a stereomicroscope and securely fastened with ligatures (6-0 silk thread). Catheters were held in place with surgical glue. Body temperature was maintained by heated scanner bed or heated mat and monitored by rectal thermometer. Vital signs, including heart rate and respiration rate were monitored continuously during the experiments.
Arterial blood samples were collected at 2, 5, 10, 20, 30, 60 and 120 minutes post-radiotracer administration (69.8±9.2 MBq, n=17 rats). […] Following blood collection, all samples were kept on ice until analyzed. Radioactivity in whole blood and plasma was assessed using a well-type γ-counter using a 400-1400 keV window (Perkin Elmer Wizzard2, USA). Plasma samples (400 μL) were processed by acetonitrile denaturation and analyzed by HPLC (Ultimate2000, ThermoFisher, UK) on a Luna C18(2) column (Luna C18(2), 10×250 mm, 10 μm, Phenomenex, UK) with a mobile phase of acetonitrile/water 70/30 at a flow rate of 4 mL/min to estimate the parent fraction. […]

Data set [2] is described as follows: Observation after in vivo administration of ^18F-LW223.
The target in the next data set is TSPO (Rattus norvegicus, UniProt P16257). In words: ^18F-LW223 PET kinetic modelling and test-retest in rats. The data set is classed as in vivo. The arrangement: from tissue; host or cells: living Sprague-Dawley rats (brain, heart, lungs and other organs). Conditions: for VT: baseline, Logan modelling; for VT / Distribution volume ratio (DVR) relative to blood pool: mean±SEM, n=3. The protocol:
All experiments were conducted in accordance with the local University of Edinburgh animal ethics committee and were authorized by the Home Office under the Animals (Scientific Procedures) Act 1986. 28 adult male Sprague-Dawley rats (357.1±8.1 g and 10.2±0.4 weeks), and 2 C57bl/6 (25.3±3.7 g and 10.1±0.0 weeks) were used for this study, with 2 C57bl/6 (26.0±5.3 g and 13.5±5.7 weeks) used in an additional study. The animals were housed under standard 12 h light:12 h dark conditions with food and water available ad libitum. On the day of the experiment, anesthesia was induced and maintained with 1.5-2.5% isoflurane (50/50 oxygen/nitrous oxide, 1 L/min). For imaging experiments, an intravenous (i.v.) line was established in the femoral vein or tail vein for injection of the radiotracer and the femoral artery was cannulated to allow automated blood sample collection, as previously described (Warnock et al.).
13 PET scans were performed with ^18F-LW223 (mean injected radioactivity of 19.55±2.1 MBq). Scans were acquired following i.v. bolus injection of ^18F-LW223 via tail vein or femoral vein shunt (invasive kinetic modelling experiments with β-probe automatic blood sampler) in rats. Test-retest scans were obtained in three rats following i.v. bolus of the radiotracer, with two weeks interval between test and retest imaging sessions. […] These scans were compared to baseline scans where no PK11195 was used. For displacement studies, rats received i.v. administration of ^18F-LW223 and scanned continuously for 120 min. […] A male and female mouse were initially used to derive the dosimetry estimates for ^18F-LW223 over a 4 h dynamic scan, followed by additional mice in a further study (in a study with a mean injected radioactivity of 10.83±5.6 MBq).
A commercially available β-probe system (Twilite2, Swisstrace, Switzerland) was used for the measurement of blood radioactivity as previously described (Warnock et al.). […] With data acquired in separate studies (radiometabolite experiments), the whole-blood arterial input function measured by the automatic blood sampler was corrected for the plasma-to-whole blood ratio and for metabolism in vivo.
All PET data were acquired using a preclinical PET/CT small animal scanner (nanoPET/CT, Mediso, Hungary). A CT scan (semi-circular full trajectory, maximum field of view, 480 projections, 50 kVp, 300 ms and 1:4 binning) was acquired for attenuation correction. Immediately following radiotracer administration, a 120 minutes emission scan was obtained using 3-dimentional 1:5 mode and re-binned as follows: 18×10 s; 2×30 s; 1×60 s; 2×2 min; 10×5 min; 6×10 min. PET images were reconstructed using Mediso's iterative Tera-Tomo 3D reconstruction algorithm and the following settings: 4 iterations, 6 subsets, full detector model, low regularization, spike filter on, voxel size 0.4 mm and 400-600 keV energy window. PET data were corrected for randoms, scatter and attenuation.
Image Processing and Data Analysis Reconstructed scans were imported into PMOD 3.8 software (PMOD Technologies, Switzerland). Volumes of interest (VOIs) were manually drawn around organs of interest. Time-activity curves (TACs) were generated and standardized uptake values (SUVs) calculated as concentration in the VOI divided by injected dose divided by animal weight. Kinetic modelling was performed using compartmental analysis (1-Tissue (1T) and 2-Tissue (2T) models) and graphical analysis (Logan plot and Ichise multivariate analysis) to estimate the volume of distribution (VT) in different tissues (Innis et al.; Logan; and Ichise et al.). Model fitting performance was evaluated using the Akaike information criterion (AIC) and the model selection criterion (MSC), where the preferred model had the lowest AIC and highest MSC. The selected identifiability criterion was the percentage standard error (% SE) of VT estimates. […]

On to `CC[C@@H](C)N(C)C(=O)c1nc2ccccc2c(-c2ccccc2)c1C[18F]` [^18F-LW223, (R)-(N-sec-Butyl)-3-[19-fluoro]-methyl-N-methyl-4-phenylquinoline-2-carboxamide], for which the “parent in arterial blood” value in data set [1] is “approximately 70%”. Besides, the “negative effects following administration in vivo” value in data set [2] is given as “no negative effects were apparent”. For the same compound, on TSPO (brain), the “test-retest inter-subject variability of DVR” value was determined as 16%, the VT was 1.46 and the “Distribution volume ratio (DVR) relative to blood pool” value is 0.53±0.06. For the same compound, on TSPO (heart), the “test-retest inter-subject variability of DVR” value is listed as 2%, the VT is recorded as 9.48±0.03 and the “Distribution volume ratio (DVR) relative to blood pool” value is listed as 2.96±0.14. For the same compound, at TSPO (lungs), the “test-retest inter-subject variability of DVR” value came to 15%, the VT is 5.13±0.29 and the “Distribution volume ratio (DVR) relative to blood pool” value was determined as 1.84±0.13.

(Values after patent US12129235B2, “TSPO binders” (The University Court of the University of Glasgow, priority 2018, dated 2024).)
